From PubChem BioAssay (NCI)
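GI50: concentration for 50% inhibition of growth. Definition used: TGI = concentration required for complete inhibition of growth.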

Columns and labels:
Assay in all cases: NCI anticancer screen, dose series, 384-well format
786-0 renal = system: 786-0 renal
A498 renal = system: A498 renal
A549 NSCLC = system: A549 NSCLC
ACHN renal = system: ACHN renal
BT-549 breast = system: BT-549 breast
CAKI-1 renal = system: CAKI-1 renal
DU-145 prostate = system: DU-145 prostate
EKVX NSCLC = system: EKVX NSCLC
HCC-2998 colon = system: HCC-2998 colon
HCT-116 colon = system: HCT-116 colon
HCT-15 colon = system: HCT-15 colon
HL-60(TB) leukemia = system: HL-60(TB) leukemia
HOP-62 NSCLC = system: HOP-62 NSCLC
HOP-92 NSCLC = system: HOP-92 NSCLC
HS 578T breast = system: HS 578T breast
HT29 colon = system: HT29 colon
IGROV1 ovarian = system: IGROV1 ovarian
K-562 leukemia = system: K-562 leukemia
KM12 colon = system: KM12 colon
LOX IMVI melanoma = system: LOX IMVI melanoma
M14 melanoma = system: M14 melanoma
MALME-3M melanoma = system: MALME-3M melanoma
MCF7 breast = system: MCF7 breast
MDA-MB-231 breast = system: MDA-MB-231 breast
MDA-MB-435 melanoma = system: MDA-MB-435 melanoma
MDA-MB-468 breast = system: MDA-MB-468 breast
MOLT-4 leukemia = system: MOLT-4 leukemia
NCI-H226 lung = system: NCI-H226 lung
NCI-H23 lung = system: NCI-H23 lung
NCI-H322M lung = system: NCI-H322M lung
NCI-H460 NSCLC = system: NCI-H460 NSCLC
NCI-H522 lung = system: NCI-H522 lung
NCI/ADR-RES ovarian = system: NCI/ADR-RES ovarian
OVCAR-3 ovarian = system: OVCAR-3 ovarian
OVCAR-4 ovarian = system: OVCAR-4 ovarian
OVCAR-5 ovarian = system: OVCAR-5 ovarian
OVCAR-8 ovarian = system: OVCAR-8 ovarian
PC-3 prostate = system: PC-3 prostate
RPMI-8226 leukemia = system: RPMI-8226 leukemia
RXF 393 renal = system: RXF 393 renal
SF-268 CNS = system: SF-268 CNS
SF-295 CNS = system: SF-295 CNS
SF-539 CNS = system: SF-539 CNS
SK-MEL-2 melanoma = system: SK-MEL-2 melanoma
SK-MEL-28 melanoma = system: SK-MEL-28 melanoma
SK-MEL-5 melanoma = system: SK-MEL-5 melanoma
SK-OV-3 ovarian = system: SK-OV-3 ovarian
SN12C renal = system: SN12C renal
SNB-19 CNS = system: SNB-19 CNS
SNB-75 CNS = system: SNB-75 CNS
SR leukemia = system: SR leukemia
SW-620 colon = system: SW-620 colon
T-47D breast = system: T-47D breast
TK-10 renal = system: TK-10 renal
U251 glioblastoma = system: U251 glioblastoma
UACC-257 melanoma = system: UACC-257 melanoma
UACC-62 melanoma = system: UACC-62 melanoma
UO-31 renal = system: UO-31 renal

Cc1cnc(-c2ccc(-c3ccc(NC(=O)Nc4cccc(C(F)(F)F)c4)cc3F)c3c2C(=O)NC3)[nH]1
GI50 ([…]-0 renal): 1470 nM | TGI (786-0 renal): 3730 nM | GI50 (A498 renal): 134 nM | TGI (A498 renal): 2210 nM | GI50 (A549 NSCLC): 1050 nM | TGI (A549 NSCLC): 6400 nM | GI50 (ACHN renal): 681 nM | TGI (ACHN renal): 10300 nM | GI50 (BT-549 breast): 130 nM | TGI (BT-549 breast): 2820 nM | GI50 (CAKI-1 renal): 145 nM | TGI (CAKI-1 renal): 8830 nM | GI50 (DU-145 prostate): 1270 nM | TGI (DU-145 prostate): 7710 nM | GI50 (EKVX NSCLC): 91.7 nM | TGI (EKVX NSCLC): 4160 nM | GI50 (HCC-2998 colon): 2860 nM | TGI (HCC-2998 colon): 6700 nM | GI50 (HCT-116 colon): 248 nM | TGI (HCT-116 colon): 2220 nM | GI50 (HCT-15 colon): 926 nM | TGI (HCT-15 colon): 4450 nM | GI50 (HL-60(TB) leukemia): 16.2 nM | TGI (HL-60(TB) leukemia): 1050 nM | GI50 (HOP-62 NSCLC): 103 nM | TGI (HOP-62 NSCLC): 2030 nM | GI50 (HOP-92 NSCLC): 685 nM | TGI (HOP-92 NSCLC): 3310 nM | GI50 (HS 578T breast): 50.3 nM | TGI (HS 578T breast): 1530 nM | GI50 (HT29 colon): 2180 nM | TGI (HT29 colon): 13600 nM | GI50 (IGROV1 ovarian): 1320 nM | TGI (IGROV1 ovarian): 12400 nM | GI50 (K-562 leukemia): 51.6 nM | TGI (K-562 leukemia): 1300 nM | GI50 (KM12 colon): < 10 nM | TGI (KM12 colon): 1320 nM | GI50 (LOX IMVI melanoma): 444 nM | TGI (LOX IMVI melanoma): 2370 nM | GI50 (M14 melanoma): 126 nM | TGI (M14 melanoma): 3180 nM | GI50 (MALME-3M melanoma): 590 nM | TGI (MALME-3M melanoma): 3820 nM | GI50 (MCF7 breast): 1080 nM | TGI (MCF7 breast): 4280 nM | GI50 (MDA-MB-231 breast): 1680 nM | TGI (MDA-MB-231 breast): 8560 nM | GI50 (MDA-MB-435 melanoma): 1270 nM | TGI (MDA-MB-435 melanoma): 10100 nM | GI50 (MDA-MB-468 breast): 28.2 nM | TGI (MDA-MB-468 breast): 75.4 nM | GI50 (MOLT-4 leukemia): < 10 nM | TGI (MOLT-4 leukemia): 11.7 nM | GI50 (NCI-H226 lung): 284 nM | TGI (NCI-H226 lung): 3150 nM | GI50 (NCI-H23 lung): 783 nM | TGI (NCI-H23 lung): 2390 nM | GI50 (NCI-H322M lung): 7120 nM | TGI (NCI-H322M lung): 26500 nM | GI50 (NCI-H460 NSCLC): 38.1 nM | TGI (NCI-H460 NSCLC): 1360 nM | GI50 (NCI-H522 lung): 34.5 nM | TGI (NCI-H522 lung): 1600 nM | GI50 (NCI/ADR-RES ovarian): 24000 nM | TGI (NCI/ADR-RES ovarian): > 100000 nM | GI50 (OVCAR-3 ovarian): 75.5 nM | TGI (OVCAR-3 ovarian): 2110 nM | GI50 (OVCAR-4 ovarian): 96.5 nM | TGI (OVCAR-4 ovarian): 2660 nM | GI50 (OVCAR-5 ovarian): 5690 nM | TGI (OVCAR-5 ovarian): 22700 nM | GI50 (OVCAR-8 ovarian): 1210 nM | TGI (OVCAR-8 ovarian): 10500 nM | GI50 (PC-3 prostate): 1960 nM | TGI (PC-3 prostate): 5350 nM | GI50 (RPMI-8226 leukemia): 31 nM | TGI (RPMI-8226 leukemia): 1490 nM | GI50 (RXF 393 renal): 923 nM | TGI (RXF 393 renal): 3400 nM | GI50 (SF-268 CNS): 261 nM | TGI (SF-268 CNS): 3000 nM | GI50 (SF-295 CNS): 93.3 nM | TGI (SF-295 CNS): 4690 nM | GI50 (SF-539 CNS): 60.9 nM | TGI (SF-539 CNS): 1740 nM | GI50 (SK-MEL-2 melanoma): 751 nM | TGI (SK-MEL-2 melanoma): 3240 nM | GI50 (SK-MEL-28 melanoma): 1300 nM | TGI (SK-MEL-28 melanoma): 12200 nM | GI50 (SK-MEL-5 melanoma): 1010 nM | TGI (SK-MEL-5 melanoma): 4350 nM | GI50 (SK-OV-3 ovarian): 926 nM | TGI (SK-OV-3 ovarian): 4140 nM | GI50 (SN12C renal): 75.5 nM | TGI (SN12C renal): 2270 nM | GI50 (SNB-19 CNS): 1700 nM | TGI (SNB-19 CNS): 4540 nM | GI50 (SNB-75 CNS): 1130 nM | TGI (SNB-75 CNS): 2660 nM | GI50 (SR leukemia): < 10 nM | TGI (SR leukemia): 14.4 nM | GI50 (SW-620 colon): 83.5 nM | TGI (SW-620 colon): 3640 nM | GI50 (T-47D breast): 2060 nM | TGI (T-47D breast): 6710 nM | GI50 (TK-10 renal): 1050 nM | TGI (TK-10 renal): 4470 nM | GI50 (U251 glioblastoma): 1340 nM | TGI (U251 glioblastoma): 3170 nM | GI50 (UACC-257 melanoma): 1730 nM | TGI (UACC-257 melanoma): 9250 nM | GI50 (UACC-62 melanoma): 276 nM | TGI (UACC-62 melanoma): 4730 nM | GI50 (UO-31 renal): 81.7 nM | TGI (UO-31 renal): 1460 nM
